# “And” between values parts separate entries of the source, which are not always exact repeats. Equal entries are not always repeated. Toxic doses and inconclusive results are not listed.
# System: BDF1 mice, P388 leukemia ip, median survival T/C
# Assay: NCI In Vivo Anticancer Drug Screen. Data for tumor model P388 Leukemia (intraperitoneal) in B6D2F1 (BDF1) mice
# Conditions: endpoint: median survival time, higher = longer survival
# Outline: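 Survival ratio, drug arm over vehicle arm, in mice with a transplanted tumour.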
# [1] = dose: 0.05 mg/kg/injection, schedule: Q01DX009 (ip), vehicle: saline
# [2] = dose: 0.1 mg/kg/injection, schedule: Q01DX009 (ip), vehicle: saline
# [3] = dose: 0.2 mg/kg/injection, schedule: Q01DX009 (ip), vehicle: saline
# [4] = dose: 50.0 mg/kg/injection, schedule: Q01DX009 (ip), vehicle: saline with Tween-80
# [5] = dose: 100.0 mg/kg/injection, schedule: Q01DX009 (ip), vehicle: saline with Tween-80
compound,measurement,setting,value
O=C1NC(C2CCC3CN32)C(=O)NC1C1CCC2CN21 (stereo unspecified),T/C,[1],91 % of control and 118 % of control
same,T/C,[2],96 % of control
same,T/C,[3],107 % of control
same,T/C,"dose: 0.8 mg/kg/injection, schedule: Q01DX009 (ip), vehicle: saline",164 % of control and 173 % of control
CCCSc1ncnc2nc[nH]c12,T/C,"dose: 31.3 mg/kg/injection, schedule: Q01DX010 (ip), vehicle: saline",95 % of control and 120 % of control
same,T/C,"dose: 62.5 mg/kg/injection, schedule: Q01DX010 (ip), vehicle: saline",100 % of control and 105 % of control
same,T/C,"dose: 125.0 mg/kg/injection, schedule: Q01DX010 (ip), vehicle: saline",95 % of control and 100 % of control
COc1ccc(NCCN(C)C)c2c(=O)c3ccccc3sc12,T/C,[4],97 % of control
same,T/C,[5],101 % of control
same,T/C,"dose: 200.0 mg/kg/injection, schedule: Q01DX009 (ip), vehicle: saline with Tween-80",108 % of control
NNC(=O)c1ccc(Br)cc1,T/C,"dose: 50.0 mg/kg/injection, schedule: Q01DX009 (ip), vehicle: Klucel (hydroxypropylcellulose) (HPC)",96 % of control
same,T/C,"dose: 100.0 mg/kg/injection, schedule: Q01DX009 (ip), vehicle: Klucel (hydroxypropylcellulose) (HPC)",92 % of control
same,T/C,"dose: 100.0 mg/kg/injection, schedule: Q04DX003 (ip), vehicle: Klucel (hydroxypropylcellulose) (HPC)",95 % of control
same,T/C,"dose: 200.0 mg/kg/injection, schedule: Q04DX003 (ip), vehicle: Klucel (hydroxypropylcellulose) (HPC)",91 % of control
CCCCNC1=C(N2CC2)C(=O)C(NCCCC)=C(N2CC2)C1=O,T/C,"dose: 1.25 mg/kg/injection, schedule: Q01DX009 (ip), vehicle: saline",107 % of control
same,T/C,"dose: 5.0 mg/kg/injection, schedule: Q01DX009 (ip), vehicle: saline",87 % of control
O=S1(=O)CC(S(=O)(=O)c2ccccc2)C1,T/C,"dose: 100.0 mg/kg/injection, schedule: Q01DX001 (ip), vehicle: saline with Tween-80",99 % of control
same,T/C,"dose: 200.0 mg/kg/injection, schedule: Q01DX001 (ip), vehicle: saline with Tween-80",103 % of control
same,T/C,"dose: 400.0 mg/kg/injection, schedule: Q01DX001 (ip), vehicle: saline with Tween-80",100 % of control
C[N+](C)(C)C12CCCCCC1SC2 (stereo unspecified),T/C,"dose: 25.0 mg/kg/injection, schedule: Q04DX003 (ip), vehicle: saline",106 % of control
same,T/C,"dose: 50.0 mg/kg/injection, schedule: Q04DX003 (ip), vehicle: saline",101 % of control
O=C(c1ccccc1)C1CCCCC1,T/C,"dose: 12.0 mg/kg/injection, schedule: Q04DX003 (ip), vehicle: Klucel (hydroxypropylcellulose) (HPC)",104 % of control
same,T/C,"dose: 25.0 mg/kg/injection, schedule: Q04DX003 (ip), vehicle: Klucel (hydroxypropylcellulose) (HPC)",109 % of control
same,T/C,"dose: 50.0 mg/kg/injection, schedule: Q04DX003 (ip), vehicle: Klucel (hydroxypropylcellulose) (HPC)",100 % of control
same,T/C,"dose: 200.0 mg/kg/injection, schedule: Q04DX003 (ip), vehicle: saline",107 % of control
same,T/C,"dose: 400.0 mg/kg/injection, schedule: Q04DX003 (ip), vehicle: saline",107 % of control
CCCCC[C@H](O)/C=C/[C@@H]1[C@@H](C/C=C\CCCC(=O)O)[C@@H](O)C[C@H]1O,T/C,"dose: 0.25 mg/kg/injection, schedule: Q#A X020 (ip), vehicle: saline",110 % of control
same,T/C,"dose: 0.5 mg/kg/injection, schedule: Q#A X020 (ip), vehicle: saline",101 % of control
same,T/C,"dose: 1.0 mg/kg/injection, schedule: Q#A X020 (ip), vehicle: saline",100 % of control
same,T/C,"dose: 2.5 mg/kg/injection, schedule: Q04DX003 (ip), vehicle: saline with Tween-80",94 % of control
same,T/C,"dose: 5.0 mg/kg/injection, schedule: Q04DX002 (ip), vehicle: saline",97 % of control
same,T/C,"dose: 10.0 mg/kg/injection, schedule: Q04DX003 (ip), vehicle: saline with Tween-80",105 % of control
same,T/C,"dose: 20.0 mg/kg/injection, schedule: Q04DX002 (ip), vehicle: saline",105 % of control
same,T/C,"dose: 40.0 mg/kg/injection, schedule: Q04DX002 (ip), vehicle: saline",105 % of control
same,T/C,"dose: 80.0 mg/kg/injection, schedule: Q04DX002 (ip), vehicle: saline",97 % of control
CNC1=C(N2CC2)C(=O)C(NC)=C(N2CC2)C1=O,T/C,[1],159 % of control
same,T/C,[2],151 % of control and 169 % of control
same,T/C,[3],195 % of control
CCCCCC[N+](CCCCCC)(CCCCCC)CCCCCC,T/C,"dose: 3.0 mg/kg/injection, schedule: Q01DX009 (ip), vehicle: saline with Tween-80",123 % of control
same,T/C,"dose: 6.0 mg/kg/injection, schedule: Q01DX009 (ip), vehicle: saline with Tween-80",116 % of control and 119 % of control
same,T/C,"dose: 6.25 mg/kg/injection, schedule: Q01DX009 (ip), vehicle: saline with Tween-80",114 % of control
same,T/C,"dose: 6.25 mg/kg/injection, schedule: Q04DX003 (ip), vehicle: saline with Tween-80",108 % of control
same,T/C,"dose: 12.5 mg/kg/injection, schedule: Q04DX003 (ip), vehicle: saline with Tween-80",95 % of control
same,T/C,"dose: 25.0 mg/kg/injection, schedule: Q04DX003 (ip), vehicle: saline with Tween-80",113 % of control
[O-][n+]1c(CCl)nc2ccccc2c1-c1ccccc1F,T/C,[4],118 % of control
same,T/C,[5],105 % of control

# Reference: PubChem BioAssay AID328 (DTP/NCI, 2004)
